# Results: patent publication US20250101436A1, “APTAMERS AND SMALL MOLECULE LIGANDS” (MeiraGTx UK II Limited, priority 2021, published 2025)
# System: luciferase gene expression in HEK 293 cells in response to Comp. 004
# Assay: Screen of riboswitch constructs with 12C6-1 variant aptamers (libraries N1-N5) against Comp. 004, luciferase in HEK 293 cells
# Assay type: cell-based, human
# Settings: library N1 (J2-4), HEK 293, 25 M [sic] Comp. 004
# Text: Cloning of riboswitch constructs containing 12C6-1 variant aptamer sequences: 12C6-1 aptamer sequence was used as template, and nucleobases were randomized at certain position in the sequence. Aptamers incorporating random mutagenesis were synthesized by Integrated DNA Technologies, Inc. Golden Gate cloning strategy (New England Biolabs, NEB) was used to clone the synthesized aptamer sequences into intron-exon-intron cassette to replace the 12C6-1 aptamer in the Luci-12C6-1 riboswitch construct, generating riboswitch constructs containing variant aptamer sequences.
# To further improve the riboswitch activity in responding to Comp. 004 and related compounds, the aptamer sequence 12C6-1 was subject to mutagenesis to generate aptamer variants, and the riboswitches containing the variant aptamers were screened against Comp. 004 for the ones that have improved dynamic range of induced gene expression (the fold induction), in comparison with the fold induction by parental riboswitch construct Luci-12C6-1. […] These loop or junction region alone or together with stem region in proximity were chosen for random mutagenesis to generate riboswitches with re-engineered aptamer sequences with improved activity.
# Five aptamer libraries N1, N2, N3, N4 and N5 were generated by randomizing nucleotides at positions in J2-4, J2-3/J3-3a/J3a-2/P3, L3a, J4-5/J5-4/P4 and L5 regions of the parent 12C6-1 sequence, respectively (see FIGS. 3a and 3b). Single bacterial colonies were picked and plasmids containing variant riboswitch constructs were screened in HEK 293 cells for improved gene regulation activity in response to 25 µM Comp. 004 as compared to parent riboswitch construct Luci-12C6-1.
row,Substance,Fold (induction of luciferase gene expression) [fold]
1,N1_2E7 (CTGGGGAGTCCTTCATGCGGGGC; chemistry not given here),19.91
2,N1_2F1 (CTGGGGAGTCCTTCATGCGGGGC; chemistry not given here),8.34
3,N1_2H2 (CTGGGGAGTCCTTCATGCGGGGC; chemistry not given here),2.85
4,N1_2F10 (CTGGGGAGTCCTTCATGCGGGGC; chemistry not given here),10.84
5,N1_2G1 (CTGGGGAGTCCTTCATGCGGGGC; chemistry not given here),100.11
6,N1_2H9 (CTGGGGAGTCCTTCATGCGGGGC; chemistry not given here),1.91
7,N1_2H10 (CTGGGGAGTCCTTCATGCGGGGC; chemistry not given here),16.82

# Same assay, conditions: library N2 variant aptamers (J2-3, P3-J3-3a, J3a-2 randomized) of 12C6-1 in riboswitch constructs; in response to Comp. 004; HEK 293 cells
row,Substance,Fold (induction of luciferase gene expression) [fold]
1,N2_2C12 (CTGGGGAGTCCTTCATGC; chemistry not given here),1.1
2,N2_2B6 (CTGGGGAGTCCTTCATGC; chemistry not given here),0.8
3,N2_2A5 (CTGGGGAGTCCTTCATGC; chemistry not given here),1.0
4,N2_2F1 (DNA CTGGGGAGTCCTTCATGC; chemistry not given here),1.1
5,N2_2A6 (CTGGGGAGTCCTTCATGC; chemistry not given here),1.2
6,N2_2D5 (DNA CTGGGGAGTCCTTCATGC; chemistry not given here),0.6
7,N2_2H4 (CTGGGGAGTCCTTCATGC; chemistry not given here),1.0
8,N2_2D11 (DNA CTGGGGAGTCCTTCATGC; chemistry not given here),1.3
9,N2_2H8 (CTGGGGAGTCCTTCATGC; chemistry not given here),1.4
10,N2_2G11 (DNA CTGGGGAGTCCTTCATGC; chemistry not given here),0.9
11,N2_2F10 (DNA CTGGGGAGTCCTTCATGC; chemistry not given here),1.1
12,N2_2C7 (CTGGGGAGTCCTTCATGC; chemistry not given here),0.8
13,N2_2G2 (DNA CTGGGGAGTCCTTCATGC; chemistry not given here),1.3
14,N2_2D10 (DNA CTGGGGAGTCCTTCATGC; chemistry not given here),1.2
15,N2_2B8 (CTGGGGAGTCCTTCATGC; chemistry not given here),1.1
16,N2_2C8 (CTGGGGAGTCCTTCATGC; chemistry not given here),0.9
17,N2_2H3 (CTGGGGAGTCCTTCATGC; chemistry not given here),1.0

# Same assay, conditions: library N5 variant aptamers (L5, X16-X21 randomized) of 12C6-1 in riboswitch constructs; in response to Comp. 004 treatment; HEK 293 cells
row,Substance,Fold (induction of luciferase gene expression) [fold]
1,N5_1C11 (CTGGGGAGTCCT; chemistry not given here),484.2
2,N5_7H5 (DNA CTGGGGAGTCCT; chemistry not given here),848.4
3,N5_4H7 (CTGGGGAGTCCT; chemistry not given here),714.3
4,N5_1C10 (CTGGGGAGTCCT; chemistry not given here),693.8
5,N5_1G5 (CTGGGGAGTCCT; chemistry not given here),804.6
6,N5_7F8 (DNA CTGGGGAGTCCT; chemistry not given here),1279.7
7,N5_1B6 (CTGGGGAGTCCT; chemistry not given here),1381.8
8,N5_14H11 (CTGGGGAGTCCT; chemistry not given here),918.4
9,N5_2E6 (CTGGGGAGTCCT; chemistry not given here),685.6
10,N5_11G4 (CTGGGGAGTCCT; chemistry not given here),931.9
11,N5_7H3 (DNA CTGGGGAGTCCT; chemistry not given here),360.5
12,N5_7C3 (DNA CTGGGGAGTCCT; chemistry not given here),1258.4
13,N5_6F6 (CTGGGGAGTCCT; chemistry not given here),953.0
14,N5_3G12 (CTGGGGAGTCCT; chemistry not given here),756.5
15,N5_1D1 (CTGGGGAGTCCT; chemistry not given here),321.6
16,N5_1A6 (CTGGGGAGTCCT; chemistry not given here),638.8
17,N5_1B11 (CTGGGGAGTCCT; chemistry not given here),477.1
18,N5_1D2 (CTGGGGAGTCCT; chemistry not given here),561.3
19,N5_7A9 (CTGGGGAGTCCT; chemistry not given here),692.6
20,N5_3A2 (CTGGGGAGTCCT; chemistry not given here),718.0
21,N5_1C3 (CTGGGGAGTCCT; chemistry not given here),664.1
22,N5_9F1 (DNA CTGGGGAGTCCT; chemistry not given here),875.6
23,N5_7E5 (DNA CTGGGGAGTCCT; chemistry not given here),867.4
24,N5_1A3 (CTGGGGAGTCCT; chemistry not given here),228.1

row,Substance,Fold (induction of luciferase gene expression) [fold]
1,N5_7C2 (DNA CTGGGGAGTCCT; chemistry not given here),627.0
2,N5_1E4 (CTGGGGAGTCCT; chemistry not given here),834.9
3,N5_7F4 (DNA CTGGGGAGTCCT; chemistry not given here),1239.0
4,N5_1A9 (CTGGGGAGTCCT; chemistry not given here),804.7
5,N5_12F11 (CTGGGGAGTCCT; chemistry not given here),926.7
6,N5_7F5 (DNA CTGGGGAGTCCT; chemistry not given here),1115.4
7,N5_7A1 (CTGGGGAGTCCT; chemistry not given here),897.3
8,N5_7G11 (DNA CTGGGGAGTCCT; chemistry not given here),1533.8
9,N5_6G10 (CTGGGGAGTCCT; chemistry not given here),1262.0
10,N5_12F12 (CTGGGGAGTCCT; chemistry not given here),1169.8
11,N5_3D3 (CTGGGGAGTCCT; chemistry not given here),1222.7
12,N5_7D3 (DNA CTGGGGAGTCCT; chemistry not given here),1075.7
13,N5_1C7 (CTGGGGAGTCCT; chemistry not given here),485.7
14,N5_14B9 (CTGGGGAGTCCT; chemistry not given here),897.5
15,N5_11D10 (CTGGGGAGTCCT; chemistry not given here),1719.3
16,N5_1E9 (CTGGGGAGTCCT; chemistry not given here),699.7
17,N5_1H7 (CTGGGGAGTCCT; chemistry not given here),1032.1
18,N5_6F4 (CTGGGGAGTCCT; chemistry not given here),1226.6
19,N5_2C2 (CTGGGGAGTCCT; chemistry not given here),894.7
20,N5_9H1 (DNA CTGGGGAGTCCT; chemistry not given here),1494.7
21,N5_7F11 (DNA CTGGGGAGTCCT; chemistry not given here),339.7
22,N5_13D5 (CTGGGGAGTCCT; chemistry not given here),749.4
23,N5_2F12 (CTGGGGAGTCCT; chemistry not given here),1100.0
